The values below are quoted from earlier work in US11318114B2, “Water dispersible mini-tablets comprising Enalapril for treatment of hypertension in a pediatric population and method of preparation thereof” (PHARMATHEN S.A., priority 2014, dated 2022).

Converted amounts (≈) assume the structure as drawn. Where a name gives a salt, the structure may show the parent alone. Read-outs that look alike come from different tables or passages of the source.

In the case of `CCOC(=O)[C@H](CCc1ccccc1)N[C@@H](C)C(=O)N1CCC[C@H]1C(=O)O` [Enalapril maleate], the Solubility entry reads like this: (alcohol) “soluble”; (dimethylformamide) “freely soluble”; (methanol) “freely soluble”; (nonpolar organic solvents) “practically insoluble”; (semi polar organic solvents) “slightly soluble”; (water) “sparingly soluble”.
`CCOC(=O)[C@H](CCc1ccccc1)N[C@@H](C)C(=O)N1CCC[C@H]1C(=O)O` [Enalapril, (2S)-1-{[92S0-1-ethoxy-1-oxo-4phenylbutan-2-yl]amino}pyrrolidine-2carboxylic acid]: the Solubility in water (water) was 25 mg/mL (≈ 66.4 mM).
